Like-named read-outs stand apart in the source and are kept apart here.

Data set [1] can be described thus: Metabolic stability in mouse liver microsomes. The data set is classed as in vitro ADME. As to conditions: Compound Conc = 0.5 μM; for Elimination rate constant (k) / Intrinsic Clearance (CLint) (mL/min/g liver): Mouse; for half-life at 0.5 μM: mouse, liver microsomes, pH 7.4, Mouse, read-out: Half life (t½). As to the method: Test compounds (0.5 μM) were incubated at 37° C. for up to 45 minutes in 50 mM of potassium phosphate buffer (pH 7.4) containing mouse liver microsomal protein (0.5 mg/mL) and an NADPH generating system (0.34 mg/mL β-nicotinamide adenine dinucleotide phosphate (NADP), 1.56 mg/mL glucose-6-phosphate, 1.2 units/mL glucose-6-phosphate dehydrogenase). At 0, 5, 15, 30, and 45 minute intervals, an aliquot was taken and quenched with acetonitrile (ACN) containing internal standard. No-cofactor controls at 45 minutes were prepared. Following completion of the experiment, the samples were analyzed by LC-MS/MS.
The half-life (t1/2) was calculated using the following equation: t1/2=0.693/k Where, k is the elimination rate constant of test compounds obtained by fitting the data to the equation: C=initial×exp(−k×t) Intrinsic clearance (Clint) is calculated as liver clearance from the half-life using the following equation: […]
0.5 mg protein/mL incubation
Ethoxycoumarin was used as a control.
(Microsomes from liver hold many membrane-bound enzymes, among them those of drug oxidation.)

The test system of data set [2] is HT-1080 cells. Kind of data set: Inhibition of erastin (10 μM)-induced death in HT-1080 cells (Alamar Blue). The data set is classed as cell-based, human. As to conditions: for EC50: Homo sapiens, read-out: EC50. On the procedure: Cell viability was typically assessed in 384-well format by Alamar Blue (Invitrogen) fluorescence (ex/em 530/590) measured on a Victor3 platereader (Perkin Elmer, Waltham, Mass.). In some experiments, Trypan Blue dye exclusion counting was performed using an automated cell counter (ViCell, Beckman-Coulter Inc., Brea, Calif.). Cell viability in test conditions is reported as a percentage relative to the negative control treatment.
The ability of various compounds disclosed herein to inhibit death in erastin (10 μM)-treated HT-1080 cells were tested. Cell viability was assessed by Alamar Blue. EC50 values (nM) were computed from dose response curves.
HT-1080 cells are cultured in DMEM containing 10% fetal bovine serum, 1% supplemented non-essential amino acids and 1% pen/strep mixture (Gibco) and maintained in a humidified environment at 37° C. with 5% CO2 in a tissue culture incubator. 1,000 HT-1080 cells are seeded per well in duplicate 384-well plates (Corning) using a BioMek FX liquid handling robot (Beckman Coulter). The next day, the medium is replaced with 36 μL of medium containing 10 μM erastin with 4 μL of medium containing a dilution series (previously prepared) of DMSO, Fer-1 (positive control) or Fer-1 analogs. 24 hours later, 10 μL Alamar Blue (Invitrogen) cell viability solution is added to the growth media to a final concentration of 10%. Cells are incubated a further 6 hours and then the Alamar Blue fluorescence intensity recorded using a Victor 3 platereader (PerkinElmer)(ex/em 530/590). All experiments are performed at least twice and the background (no cells)-subtracted Alamar Blue values for each combination are averaged between replicates.
(In general: Resazurin is reduced to fluorescent resorufin, in cell work by metabolically active cells.)

A short description of data set [3]: In vitro stability study in mouse plasma. The format is in vitro ADME. As to the method: The assay was conducted by incubating 1 μM of test compounds with Mouse Plasma (Strain […]) for a series of incubation times (0, 15, 30, 60, 120 minutes) at various temperatures (wet ice, room temperature, or 37° C.) with 5% CO2 and shaking (130 rpm). At each time point, the samples were quenched with 200 μL of stop solution containing an internal standard and kept on ice. The samples were analysed by LC-MS/MS.

[4] abbreviates: HT-1080, Table 1 (Example 10), erastin (10 μM)-treated HT-1080 cells.

With `CCOc1ccc2ccc(=O)oc2c1` [Ethoxycoumarin, reference compound], in data set [1], the “Elimination rate constant (k)” value worked out at 0.2661, the “Intrinsic Clearance (CLint) (mL/min/g liver)” value is on record as 27.94 mL/min/g liver and the half-life at 0.5 μM stood at 0.0433 h.
Regarding `CCOC(=O)c1ccc(NC2CCCCC2)c(NCc2ccccn2)c1` [SRS12-46, ethyl 4-(cyclohexylamino)-3-(pyridin-2-ylmethylamino)-benzoate], in data set [2] (HT-1080, SI Table 7), the EC50 is 33 nM.
Take `Nc1cc(C(=O)OCCN2CCOCC2)ccc1NC1CCCCC1` [SRS12-47, 2-morpholinoethyl 3-amino-4-(cyclohexylamino)benzoate]: in data set [2] (HT-1080, SI Table 4, various R3 substitutions), the EC50 came to 660 nM.
Take `CCOC(=O)c1ccc(NC2CCCCC2)c(NCc2ccc(C(F)(F)F)cc2)c1` [SRS12-48, ethyl 4-(cyclohexylamino)-3-(4-(trifluoromethyl)benzylamino)-benzoate]: the EC50 in data set [2] (HT-1080, SI Table 6) was 46 nM.
Turning to `CCOC(=O)c1ccc(NC2CCCCC2)c(NCc2ccc(Cl)cc2)c1` [SRS12-49, ethyl 3-(4-chlorobenzylamino)-4-(cyclohexylamino)benzoate], in data set [2] (HT-1080, SI Table 6), the EC50 amounted to 371 nM.
Still for that read-out and setting: next, `CCOC(=O)c1ccc(NC2CCCCC2)c(NCc2ccc(C#N)cc2)c1` [SRS12-50, ethyl 3-(4-cyanobenzylamino)-4-(cyclohexylamino)benzoate]: 100 nM.
For `CCOC(=O)c1ccc(NC2CCCCC2)c(NCc2ccc3ccccc3c2)c1` [SRS12-51, ethyl 4-(cyclohexylamino)-3-(naphthalen-2-ylmethylamino)-benzoate], the EC50 in data set [2] (HT-1080, SI Table 7) worked out at 58 nM.
As for `CCOC(=O)c1ccc(NC2CCCCC2)c(NCc2cc(F)cc(Br)c2)c1` [SRS12-52, ethyl 3-(3-bromo-5-fluorobenzylamino)-4-(cyclohexylamino)-benzoate], the EC50 in data set [2] (HT-1080, SI Table 7) is 105 nM.
Same read-out and setting: in the case of `CCOC(=O)c1ccc(NC2CCCCC2)c(NCc2cc(OC)cc(OC)c2)c1` [SRS12-53, ethyl 4-(cyclohexylamino)-3-(3,5-dimethoxybenzylamino)-benzoate] it was 41 nM; in that of `CCOC(=O)c1ccc(NC2CCCCC2)c(NCc2ccc(F)c(C#N)c2)c1` [SRS12-54, ethyl 3-(3-cyano-4-fluorobenzylamino)-4-(cyclohexylamino)-benzoate], 159 nM.
As for `CCOC(=O)c1ccc(NC2CCCCC2)c(NCc2cccc(F)c2)c1` [SRS12-57, ethyl 4-(cyclohexylamino)-3-(3-fluorobenzylamino)benzoate], in data set [2] (HT-1080, SI Table 6), the 50% effective concentration (EC50) came to 100 nM.
Turning to `CCOC(=O)c1ccc(NC2CCCCC2)c(NCc2cccc(Cl)c2)c1` [SRS12-58, ethyl 3-(3-chlorobenzylamino)-4-(cyclohexylamino)benzoate], in data set [2] (HT-1080, SI Table 6), the EC50 was 41 nM.
Consider `CCOC(=O)c1ccc(NC2CCCCC2)c(NCc2cc(F)cc(F)c2)c1` [SRS12-59, ethyl 4-(cyclohexylamino)-3-(3,5-difluorobenzylamino)-benzoate], for which the EC50 in data set [2] (HT-1080, SI Table 7) worked out at 96 nM.
For the compound `CCOC(=O)c1ccc(NC2CCCCC2)c(NCc2ccccc2[N+](=O)[O-])c1` [SRS12-71, ethyl 4-(cyclohexylamino)-3-(2-nitrobenzylamino)benzoate], in data set [2] (HT-1080, SI Table 6), the EC50 was found to be 126 nM.
Consider `CCOC(=O)c1ccc(NC2CCCCC2)c(NCc2ccc(C(=O)OC)cc2)c1` [SRS12-80, ethyl 4-(cyclohexylamino)-3-(4-(methoxycarbonyl)-benzylamino)benzoate], for which the EC50 in data set [2] (HT-1080, SI Table 7) amounted to 33 nM.
Regarding `CCOC(=O)c1ccc(CNc2cc(C(=O)OCC)ccc2NC2CCCCC2)cc1` [SRS12-84, ethyl 4-(cyclohexylamino)-3-(4-(ethoxycarbonyl)benzylamino)-benzoate], the EC50 in data set [2] (HT-1080, SI Table 7) is 53 nM.
The same measure, in the same setting: in the case of `CCOC(=O)c1ccc(NC2CCCCC2)c(NCc2cccnc2)c1` [SRS13-12, ethyl 4-(cyclohexylamino)-3-(pyridin-3-ylmethylamino)-benzoate] it was 48 nM; in that of `CCOC(=O)c1ccc(NC2CCC(C(C)(C)C)CC2)c(NCc2ccncc2)c1` (stereo not shown) [SRS13-30, ethyl 4-(4-tert-butylcyclohexylamino)-3-(pyridin-4-ylmethylamino)benzoate], 114 nM.
`CCOC(=O)c1ccc(NC23CC4CC(CC(C4)C2)C3)c([N+](=O)[O-])c1` [SRS15-15]: in data set [2] (Table 1 (Example 10), erastin (10 μM)-treated HT-1080 cells), the “EC50 (nM)” value is “Not active”.
Consider `CCOC(=O)c1ccc(NC2C3CC4CC(C3)CC2C4)c(N)c1` (stereo not shown) [SRS15-17, ethyl 3-amino-4-(2-adamantylamino)benzoate], for which the EC50 in data set [2] (setting [4]) was determined as 171 nM.
Still for that read-out and setting: next, `CCOC(=O)c1ccc(NC23CC4CC(CC(C4)C2)C3)c(N)c1` [SRS15-18, ethyl 3-amino-4-(1-adamantylamino)benzoate]: 87.7 nM.
`CCOC(=O)c1ccc(NC2C3CC4CC(C3)CC2C4)c(N(Cc2ccccc2)Cc2ccccc2)c1` (stereo not shown) [SRS15-20_di, ethyl 3-(dibenzylamino)-4-(2-adamantylamino)benzoate]: the EC50 in data set [2] (setting [4]) is 914 nM.
On the same count and under the same terms, in the case of `CCOC(=O)c1ccc(NC2C3CC4CC(C3)CC2C4)c(NCc2ccccc2)c1` (stereo not shown) [SRS15-20_mono, ethyl 3-(benzylamino)-4-(2-adamantylamino)benzoate] it was 21.7 nM.
Consider `CCOC(=O)c1ccc(NC2C3CC4CC(C3)CC2C4)c(NCc2ccncc2)c1` (stereo not shown) [SRS15-21, ethyl 4-(2-adamantylamino)-3-((pyridin-4-ylmethyl)amino)-benzoate], for which the EC50 in data set [2] (setting [4]) was determined as 23 nM.
On to `CCOC(=O)c1ccc(NC23CC4CC(CC(C4)C2)C3)c(NCc2ccccc2)c1` [SRS15-23, ethyl 3-(benzylamino)-4-(1-adamantylamino)benzoate], for which, in data set [2] (setting [4]), the EC50 was 23 nM.
Still for that read-out and setting: in the case of `CCOC(=O)c1ccc(NC23CC4CC(CC(C4)C2)C3)c(NCc2ccncc2)c1` [SRS15-24, ethyl 4-(1-adamantylamino)-3-((pyridin-4-ylmethyl)amino)-benzoate] it was 8.6 nM.
`CCOC(=O)c1ccc(NC23CC4CC(CC(C4)C2)C3)c(/N=C\c2cncnc2)c1` [SRS15-72, ethyl 4-(adamantylamino)-3-(pyrimidin-5-ylmethyleneamino)benzoate]: the EC50 in data set [2] (setting [4]) is 288 nM. Further, in data set [1], the “Elimination rate constant (k)” value was found to be 0.0045. Besides, in data set [1], the “Intrinsic Clearance (CLint) (mL/min/g liver)” value is 0.47 mL/min/g liver. The half-life at 0.5 μM in data set [1] came out at 2.57 h. Moreover, the “Peak Area Ratio” value in data set [3] (Room Temperature, 0 min) came out at 2.0737; in data set [3] (Room Temperature, 15 min), 1.1581; in data set [3] (Room Temperature, 30 min), 0.5320; in data set [3] (Room Temperature, 60 min) it was 0.2502; in data set [3] (Room Temperature, 120 min), 0.0841; in data set [3] (Wet Ice, 0 min), 2.6066. Also, the “Peak Area Ratio” value in data set [3] (Wet Ice, 15 min) was determined as 2.0815; in data set [3] (Wet Ice, 30 min), 1.6279; in data set [3] (Wet Ice, 60 min) it was 1.4397; in data set [3] (Wet Ice, 120 min), 1.2446. Also, the “Percent Remaining” value in data set [3] (Room Temperature, 0 min) is 100.0%; in data set [3] (Room Temperature, 15 min), 55.8%; in data set [3] (Room Temperature, 30 min), 25.7%; in data set [3] (Room Temperature, 60 min), 12.1%; in data set [3] (Room Temperature, 120 min), 4.1%; in data set [3] (Wet Ice, 0 min), 100.0%. For the same compound, the “Percent Remaining” value in data set [3] (Wet Ice, 15 min) worked out at 79.9%; in data set [3] (Wet Ice, 30 min), 62.5%; in data set [3] (Wet Ice, 60 min) it was 55.2%; in data set [3] (Wet Ice, 120 min) it was 47.7%.

What is called half-life is the time needed for the level to fall by half in the phase considered. The EC50 is the midpoint of the concentration-response curve.

(Values after US11192849B2, “Compounds, compositions, and methods for modulating ferroptosis and treating excitotoxic disorders” (THE TRUSTEES OF COLUMBIA UNIVERSITY IN THE CITY OF NEW YORK, priority 2013, dated 2021).)
